According to patent publication US20090054392A1, “NAPHTHYLPYRIMIDINE, NAPHTHYLPYRAZINE AND NAPHTHYLPYRIDAZINE ANALOGS AND THEIR USE AS AGONISTS OF THE WNT-BETA-CATENIN CELLULAR MESSAGING SYSTEM” (Wyeth, priority 2007, published 2009):

System: Dkk1-LRP5-TCF-Luciferase
Experiment: Functional Dkk1-LRP5-TCF-Luciferase Assay in U2OS Cells
Conditions: for EC50 / fold induction at 2 µM / fold induction at 20 µM: Homo sapiens, U2OS; for fold induction at 2 µM: read-out: B = TCF ACTIVITY/DMSO CONTROL Fold induction @ 2.0 uM, 2.0 uM compound; for fold induction at 20 µM: read-out: C = TCF ACTIVITY/DMSO CONTROL Fold induction @ 20.0 uM, 20.0 uM compound; for A = MAX FOLD Induction/DMSO CONTROL: maximum fold induction over DMSO control

| EC50 [µM] | A = MAX FOLD Induction/DMSO CONTROL [fold] | SMILES | fold induction at 2 µM | fold induction at 20 µM |
| --- | --- | --- | --- | --- |
| 4.98 | 2.380 | c1ccc2cc(-c3ccnc(N4CCC(CN5CCOCC5)CC4)n3)ccc2c1 [4-({1-[4-(2-naphthyl)pyrimidin-2-yl]piperidin-4-yl}methyl)morpholine] | 0.76 | 1.96 |
| – | – | O=C(NCC[C@@H]1CCCN1c1nccc(-c2ccc3ccccc3c2)n1)C(F)(F)F [2,2,2-trifluoro-N-(2-{(2S)-1-[4-(2-naphthyl)pyrimidin-2-yl]pyrrolidin-2-yl}ethyl)acetamide] | 1.44 | 0.89 |
| – | – | OC[C@H]1CCCN1c1nccc(-c2ccc3ccccc3c2)n1 [{(2R)-1-[4-(2-naphthyl)pyrimidin-2-yl]pyrrolidin-2-yl}methanol] | 1.85 | 1.78 |
| – | – | N#Cc1ccc(C(=O)N[C@@H]2CCN(c3nccc(-c4ccc5ccccc5c4)n3)C2)cc1 [4-cyano-N-{(3R)-1-[4-(2-naphthyl)pyrimidin-2-yl]pyrrolidin-3-yl}benzamide] | – | 1.29 |
| – | – | c1ccc2cc(-c3ccnc(N4CC[C@H](N5CCCC5)C4)n3)ccc2c1 [(3′S)-1′-[4-(2-naphthyl)pyrimidin-2-yl]-1,3′-bipyrrolidine] | 1.45 | 0.83 |
| – | – | CC(=O)N(C)CCN(C)[C@@H]1CCN(c2nccc(-c3ccc4ccccc4c3)n2)C1 [N-methyl-N-[2-(methyl{(3R)-1-[4-(2-naphthyl)pyrimidin-2-yl]pyrrolidin-3-yl}amino)ethyl]acetamide] | – | 4.4 |
| 2.25 | 1.800 | O=CNC1CCCN(c2nccc(-c3ccc4ccccc4c3)n2)CC1 (stereo not drawn) [{1-[4-(2-naphthyl)pyrimidin-2-yl]azepan-4-yl}formamide] | 1.5 | 2.05 |
| – | 1.270 | CC(C)(C)OC(=O)N1CC[C@H](Nc2nccc(-c3ccc4ccccc4c3)n2)C1 [tert-butyl (3S)-3-{[4-(2-naphthyl)pyrimidin-2-yl]amino}pyrrolidine-1-carboxylate] | 2.11 | – |
| – | – | CN(C)CC1CCN(c2nccc(-c3ccc4ccccc4c3)n2)CC1 [N,N-dimethyl-1-{1-[4-(2-naphthyl)pyrimidin-2-yl]piperidin-4-yl}methanamine] | 1.85 | – |
| – | – | Cc1ccc(S(=O)(=O)N2CCCN(c3nccc(-c4ccc5ccccc5c4)n3)CC2)cc1 [1-[(4-methylphenyl)sulfonyl]-4-[4-(2-naphthyl)pyrimidin-2-yl]-1,4-diazepane] | 1.76 | – |
| – | – | CN(C)C(=O)NCCC1CCN(c2nccc(-c3ccc4ccccc4c3)n2)CC1 [N,N-dimethyl-N′-(2-{1-[4-(2-naphthyl)pyrimidin-2-yl]piperidin-4-yl}ethyl)urea] | 1.48 | 0.18 |
| – | – | CC(C)(C)OC(=O)NCCC1CN(c2nccc(-c3ccc4ccccc4c3)n2)C1 [tert-butyl {2-[1-(4-naphthalen-2-ylpyrimidin-2-yl)azetidin-3-yl]ethyl}carbamate] | – | 1.6 |
| – | – | CN(C)C(=O)N1CCC(CNc2nccc(-c3ccc4ccccc4c3)n2)CC1 [N,N-dimethyl-4-({[4-(2-naphthyl)pyrimidin-2-yl]amino}methyl)piperidine-1-carboxamide] | 0.87 | 1.24 |
| 0.925 | 1.975 | OCC1CCN(c2nccc(-c3ccc4ccccc4c3)n2)C1 (stereo not drawn) [{1-[4-(2-naphthyl)pyrimidin-2-yl]pyrrolidin-3-yl}methanol] | 2.13 | 1.42 |
| – | 1.590 | COC(=O)[C@@H](N)C1CCN(c2nccc(-c3ccc4ccccc4c3)n2)CC1 [methyl (2S)-amino{1-[4-(2-naphthyl)pyrimidin-2-yl]piperidin-4-yl}acetate] | – | 0.57 |
| 2.9 | 2.585 | CS(=O)(=O)N1CC[C@H](Nc2nccc(-c3ccc4ccccc4c3)n2)C1 [N-[(3S)-1-(methylsulfonyl)pyrrolidin-3-yl]-4-(2-naphthyl)pyrimidin-2-amine] | 1.41 | 2.26 |
| – | 1.660 | CN(C)[C@H]1CCN(C[C@@H]2CCN(c3nccc(-c4ccc5ccccc5c4)n3)C2)C1 [(3S)—N,N-dimethyl-1-({(3S)-1-[4-(2-naphthyl)pyrimidin-2-yl]pyrrolidin-3-yl}methyl)pyrrolidin-3-amine] | 2.08 | 0.01 |
| – | – | CC(=O)NCC1CN(c2nccc(-c3ccc4ccccc4c3)n2)C1 [N-({1-[4-(2-naphthyl)pyrimidin-2-yl]azetidin-3-yl}methyl)acetamide] | 0.69 | 1.76 |
| – | – | NCCC1CN(c2nccc(-c3ccc4ccccc4c3)n2)C1 [2-[1-(4-naphthalen-2-ylpyrimidin-2-yl)azetidin-3-yl]ethanamine] | 2.4 | – |

| EC50 [µM] | A = MAX FOLD Induction/DMSO CONTROL [fold] | SMILES | fold induction at 2 µM | fold induction at 20 µM |
| --- | --- | --- | --- | --- |
| – | 3.430 | CCN(CCO)[C@@H]1CCN(c2nccc(-c3ccc4ccccc4c3)n2)C1 [2-(ethyl{(3R)-1-[4-(2-naphthyl)pyrimidin-2-yl]pyrrolidin-3-yl}amino)ethanol] | 1.8 | 5.83 |
| 0.659 | 1.990 | CO[C@@H]1CCN(c2nccc(-c3ccc4ccccc4c3)n2)C1 [2-[(3R)-3-methoxypyrrolidin-1-yl]-4-(2-naphthyl)pyrimidine] | 1.36 | 3.1 |
| – | – | OCC1CCN([C@@H]2CCN(c3nccc(-c4ccc5ccccc5c4)n3)C2)CC1 [(1-{(3R)-1-[4-(2-naphthyl)pyrimidin-2-yl]pyrrolidin-3-yl}piperidin-4-yl)methanol] | 1.69 | 0.01 |
| – | – | CC(C)COc1ccc2cc(-c3ccnc(N4CCC(CN)CC4)n3)ccc2c1 [1-{1-[4-(6-isobutoxy-2-naphthyl)pyrimidin-2-yl]piperidin-4-yl}methanamine] | 1.54 | – |
| – | 1.800 | OC[C@@H]1CCCN(c2nccc(-c3ccc4ccccc4c3)n2)C1 [{(3R)-1-[4-(2-naphthyl)pyrimidin-2-yl]piperidin-3-yl}methanol] | 1.98 | 1.08 |
| – | – | CC(C)(C)OC(=O)N[C@H](C1CCN(c2nccc(-c3ccc4ccccc4c3)n2)CC1)C(C)(C)O [tert-butyl ((1R)-2-hydroxy-2-methyl-1-{1-[4-(2-naphthyl)pyrimidin-2-yl]piperidin-4-yl}propyl)carbamate] | 1.79 | – |
| 13.8 | 1.420 | CS(=O)(=O)N[C@H]1CCN(c2nccc(-c3ccc4ccccc4c3)n2)C1 [N-{(3S)-1-[4-(2-naphthyl)pyrimidin-2-yl]pyrrolidin-3-yl}methanesulfonamide] | 0.68 | 1.56 |
| – | – | O[C@@H]1CCN([C@H]2CCN(c3nccc(-c4ccc5ccccc5c4)n3)C2)C1 [(3R,3′S)-1′-[4-(2-naphthyl)pyrimidin-2-yl]-1,3′-bipyrrolidin-3-ol] | 2.1 | – |
| – | 1.710 | CN(C)[C@@H]1CCN([C@@H]2CCN(c3nccc(-c4ccc5ccccc5c4)n3)C2)C1 [(3R,3′R)-N,N-dimethyl-1′-[4-(2-naphthyl)pyrimidin-2-yl]-1,3′-bipyrrolidin-3-amine] | 2.71 | 0.01 |
| – | – | OC1CCN([C@H]2CCN(c3nccc(-c4ccc5ccccc5c4)n3)C2)CC1 [1-{(3S)-1-[4-(2-naphthyl)pyrimidin-2-yl]pyrrolidin-3-yl}piperidin-4-ol] | 1.31 | 0.26 |
| 19.4 | 1.720 | NC(=O)NCC1CCN(c2nccc(-c3ccc4ccccc4c3)n2)C1 (stereo not drawn) [N-({1-[4-(2-naphthyl)pyrimidin-2-yl]pyrrolidin-3-yl}methyl)urea] | 1.14 | 2.34 |
| – | – | O=C1CN(CC2CCN(c3nccc(-c4ccc5ccccc5c4)n3)C2)CCN1 (stereo not drawn) [4-({1-[4-(2-naphthyl)pyrimidin-2-yl]pyrrolidin-3-yl}methyl)piperazin-2-one] | 1.23 | 0.46 |
| – | 1.420 | NCCC1CCN(c2nccc(-c3ccc4ccccc4c3)n2)CC1 [2-{1-[4-(2-naphthyl)pyrimidin-2-yl]piperidin-4-yl}ethanamine] | 2.15 | 0.005 |
| – | – | NC[C@@H]1C[C@@H]2C[C@H]1CN2c1nccc(-c2ccc3ccccc3c2)n1 [1-{(1R,4R,5R)-2-[4-(2-naphthyl)pyrimidin-2-yl]-2-azabicyclo[2.2.1]hept-5-yl}methanamine] | 1.4 | – |
| – | – | CN(C)[C@@H]1CCN(C[C@@H]2CCN(c3nccc(-c4ccc5ccccc5c4)n3)C2)C1 [(3R)—N,N-dimethyl-1-({(3S)-1-[4-(2-naphthyl)pyrimidin-2-yl]pyrrolidin-3-yl}methyl)pyrrolidin-3-amine] | 1.53 | 0.03 |
| – | – | NC[C@H]1CC[C@H](c2nccc(-c3ccc4ccccc4c3)n2)CC1 [1-[trans-4-(4-naphthalen-2-ylpyrimidin-2-yl)cyclohexyl]methanamine] | 3.5 | – |
| – | 1.950 | CCOC(=O)C1CCN(c2nccc(-c3ccc4ccccc4c3)n2)CC1 [ethyl 1-[4-(2-naphthyl)pyrimidin-2-yl]piperidine-4-carboxylate] | 1.64 | 1.91 |
| 5.7 | 1.853 | c1ccc2cc(-c3ccnc(NCCN4CCOCC4)n3)ccc2c1 [N-(2-morpholin-4-ylethyl)-4-(2-naphthyl)pyrimidin-2-amine] | 2.11 | 2.44 |
| – | – | CC(=O)N1CC[C@H](Nc2nccc(-c3ccc4ccccc4c3)n2)C1 [N-[(3S)-1-acetylpyrrolidin-3-yl]-4-(2-naphthyl)pyrimidin-2-amine] | 1.15 | 1.66 |
